The subject of series [1] is colon carcinoma model. As to conditions: colon carcinoma model ref 34; cited from earlier work.
The conditions of series [2]: cited from earlier work.
The test system of series [3] is solid tumors. The settings on record: cited from earlier work.
For series [4] the following is noted: cited from earlier work. The source holds these as a separate data set.
For series [5] the following is noted: human, in vivo, po, 70 mg/m2.
For series [6] the following is noted: single-agent sorafenib, same dose regimen ref 17; cited from earlier work.
Series [7] in a line: clinical. The settings on record: human, plasma, oral.
Series [8] can be described thus: Plasma pharmacokinetics of sorafenib given with irinotecan. As to conditions: pediatric patients, combination therapy.
[9] abbreviates: single agent, pediatric phase 1 trials ref 26, 27, 44.

Here are results for four molecules from article PMC10197018 (Pediatric blood & cancer, 2021).

Read-outs that look alike come from different tables or passages of the source.

The term AUC(0-inf) denotes total exposure, with the tail of the curve extrapolated. Read a low AUC(0-inf) as low exposure. Take `CCc1c2c(nc3ccc(OC(=O)N4CCC(N5CCCCC5)CC4)cc13)-c1cc3c(c(=O)n1C2)COC(=O)[C@]3(O)CC` [Irinotecan]: the growth delay in series [1] is 71%. Moreover, the “MTD of oral irinotecan with temozolomide and vincristine” value in [2] (5 days for 2 weeks with temozolomide 100 mg/m^2/day ref 33) was 35 mg/m^2/daily. Moreover, in series [2] (daily for 5 days every 21 days, solid tumors, patients < 65 years of age ref 31), the “MTD, short course oral irinotecan” value is 65 mg/m^2/dose. In series [2] (daily × 5 days for 2 weeks, pediatric patients, with cefixime ref 30), the “MTD, protracted course of oral irinotecan” value is reported as 60 mg/m^2/dose. Further, in series [2] (daily × 5 days with temozolomide 150 mg/m^2/day ref 33), the “MTD of oral irinotecan with temozolomide and vincristine” value is recorded as 90 mg/m^2/daily. In [2] (patients with neuroblastoma ref 32), the “MTD, protracted course of oral irinotecan with temozolomide” value is reported as 60 mg/m^2/day. For the same molecule, in series [3] (setting [9]), the “mixed response and/or SD rates” value is given as 20–26% and the partial response rates was 0 to 6%. Moreover, the absolute oral bioavailability in [4] (irinotecan solution ref 47) was 17%. Also, where the note is “human, plasma, po, 70 mg/m2”, the AUC(0-inf) is 594 ± 299 ng·h/mL, the CMAX is 93.9 ± 60.8 ng/mL and the Tmax is 1.97 ± 0.85 h. In addition, under “oral irinotecan 70 mg/m^2 with sorafenib, range 0.18–3.49”, the “mean dose-normalized CMAX (CMAX/D)” value was found to be 1.14 ng/mL/mg. Moreover, the “dose-normalized AUCINF (AUCINF/D)” value (oral irinotecan 70 mg/m^2 with sorafenib, range 1.7–19.5) was 7.1 ng·h/mL/mg.

In the case of `CCc1c2c(nc3ccc(O)cc13)-c1cc3c(c(=O)n1C2)COC(=O)[C@]3(O)CC` [SN38, 7-ethyl-10-hydroxy camptothecin], the “extent of metabolic conversion from SN38 to SN38-G” value is 6.9–13.4 in series [4] (adults ref 45, 46) and 1.6–4.1 in [4] (other pediatric reports ref 48, 49). Also, the CMAX in series [4] (oral irinotecan 60 mg/m^2 in adults ref 47) is reported as 7.4 ± 4.4 ng/mL. Further, the AUCINF in [4] (oral irinotecan study in adults ref 47) was 58.7 ± 31 ng·h/mL. Also, the t1/2 in series [4] (oral study in adults ref 47) is 11.9 h; in [4] (reported pediatric ranges ref 48) it was 7.3 to 18.5 h. Also, for the setting “oral irinotecan 70 mg/m^2 with sorafenib, pediatric patients”, the “mean extent of metabolic conversion from SN38 to SN38-G” value is given as 3.73.

For the molecule `CCc1c2c(nc3ccc(O[C@@H]4O[C@H](C(=O)O)[C@@H](O)[C@H](O)[C@H]4O)cc13)-c1cc3c(c(=O)n1C2)COC(=O)[C@]3(O)CC` [SN38-G], the AUCINF in [5] was 62.1 ± 35.4 (57.0%) hr•ng/mL; in [4] (human, in vivo), 30.8 to 153 ng·h/mL; in series [4] (in vivo, po), 356 ± 348 ng·h/mL. For the same molecule, the CMAX in series [5] was 5.50 ± 3.38 (61.4%) ng/mL; in [4] (in vivo, po, 60 mg/m2), 21.7 ± 15.2 ng/mL. In addition, in series [5], the Tmax was 3.17 ± 1.09 (34.2%) hr.

`CNC(=O)c1cc(Oc2ccc(NC(=O)Nc3ccc(Cl)c(C(F)(F)F)c3)cc2)ccn1` [Sorafenib]: the growth delay in series [1] is listed as 100%. Also, in series [3] (phase 2, Wilms tumor, 2 of 10 patients ref 18), the “prolonged SD” value is recorded as 20%. In series [3] (phase 2, cohort with rhabdomyosarcoma ref 18), the responses result is reported as “no responses”. Moreover, the Tmax in series [6] is 4.98 h; in series [7], 6.4 h. Also, the “mean CMAX/D” value in [6] is given as 8.33 ng/mL/mg. The “age-dependent difference in AUC” value in series [8] is “no significant age-dependent difference”.
